Experimental data: patent US20260061080A1, “FLUORESCENT COMPOUND BASED ON NEW INDOCYANINE GREEN IR820, AND PREPARATION AND USE THEREOF” (Shanghai Fluoresoma Medical Technology Co., Ltd., priority 2023, published 2026)

Tests used:
[1] = test system: tumor sites of tumor-bearing mice; assay: Fluorescence imaging of IR820-cRGD in living tumor-bearing mice; assay type: in vivo; details: tail vein injection, solution in pure water at 10 μM (or equal equivalent probe concentration), observed 2 hours later; FIG. 5
Protocol: Three tumor-bearing mice were administered with an IR820-cRGD solution in pure water at a concentration of 10 μM, a […] solution in pure water at an equal equivalent probe concentration, and an IR820 solution in pure water at an equal equivalent probe concentration through tail vein injection, respectively. 2 hours later, tumor sites of the mice were observed using an in vivo imaging instrument for small animals to obtain imaging situations.

[2] = test system: breast cancer cells (MCF-7), cervical cancer cells (Hela), normal cells (CHO); details: 10 μL of 1 mM DMSO mother solution of probe in 2 mL culture dish; CHO vs MCF-7 and Hela; FIG. 4
Protocol: An instrument model used for cell imaging is a Leica TCS SP5 II confocal laser scanning microscope using a HC×PLAPO 63×oil objective (NA: 1.40).
The experiment was carried out in three groups, with one group using normal cells (CHO), one group using breast cancer cells (MCF-7), and one group using cervical cancer cells (Hela). Before an imaging test, a cultured cell culture solution was first sucked away, and the cells were washed once with a PBS buffer solution, and then washed once with DMEM or 1640. 10 μL of a formulated DMSO mother solution with a probe concentration of 1 mM was measured and added into a 2 mL culture dish containing a fresh DMEM or 1640 culture medium. After culture was completed, the excessive culture solution was first removed, the cells were washed with a PBS buffer solution (pH 7.4) to remove an excessive probe, and then the imaging test was carried out on the cells separately using a confocal fluorescence microscope.

CC1(C)C(/C=C/C2=C(Oc3ccc(CCC(=O)NCCCC[C@@H]4NC(=O)[C@@H](Cc5ccccc5)NC(=O)[C@H](CC(=O)O)NC(=O)CNC(=O)[C@H](CCCNC(=N)N)NC4=O)cc3)C(=C/C=C3/N(CCCCS(=O)(=O)O)c4ccc5ccccc5c4C3(C)C)/CCC2)=[N+](CCCCS(=O)(=O)O)c2ccc3ccccc3c21 [IR820-cRGD]
fluorescence signal at the tumor site [1]: highly bright fluorescence signal
fluorescence signal in cells (selectivity for tumor cells) [2]: greater selective fluorescence signals for the tumor cells

CC1(C)C(/C=C/C2=C(Cl)C(=C/C=C3/N(CCCCS(=O)(=O)[O-])c4ccc5ccccc5c4C3(C)C)/CCC2)=[N+](CCCCS(=O)(=O)O)c2ccc3ccccc3c21 [IR820]
fluorescence signal at the tumor site [1]: weak fluorescence signal
